In patent US20220154242A1, “METHOD FOR MODIFYING SUBSTRATE SPECIFICITY OF GLUCOSE DEHYDROGENASE AND AGENT FOR MODIFYING SUBSTRATE SPECIFICITY OF GLUCOSE DEHYDROGENASE” (KIKKOMAN CORPORATION, priority 2019, published 2022):

Assays:
Wild type MpGDH [1] = experiment: Maltose/glucose response current ratio, MWCNT/DPPD/MpGDH-immobilized carbon cloth electrode (chronoamperometry); assay type: biochemical, Mucor prainii; conditions: for Maltose/Glucose Relative value (%): 50 mM additive, wild type MpGDH on carbon cloth electrode, no modifier = 100%; for Modification of substrate specificity of GDH: carbon cloth electrode, MpGDH
Method: The cloth was thoroughly dried and then washed with ultrapure water. Subsequently, 40 mg/ml wild type MpGDH and 20 μl of 100 mM various glucose analogs dissolved in ultrapure water were mixed in equal proportions, and 20 μl of the resulting solution was applied to the […] immobilized electrode. After being allowed to dry at room temperature, the electrode was placed in 25% glutaraldehyde vapor for 20 minutes to immobilize MpGDH by cross-linking. Then, the electrode was subjected to washing with ultrapure water in the same manner as above to obtain an […]-immobilized electrode. Next, this electrode was connected to an ALS electrochemical analyzer […]. Then, the […]-immobilized electrode, an Ag/AgCl reference electrode, and a platinum counter electrode were immersed in PBS, and chronoamperometric measurement was carried out. The applied voltage was set to +250 mV (Ag/AgCl). […] The difference in the response current before and after the addition of maltose was recorded as the response current value of maltose, and the difference in the response current before and after the addition of glucose was recorded as the response current value of glucose. The value calculated by dividing the response current value of maltose by the response current value of glucose was expressed as maltose/glucose (%). […] An […]-immobilized electrode was made in the same manner as Example 4 except that the application step was altered. That is, 20 μl of 40 mg/ml wild type MpGDH was mixed with 10 μl each of 100 mM glycerol and 100 mM L-iditol dissolved in ultrapure water, and 20 μl of the resulting solution was applied to the […] immobilized electrode for the application step. Then, chronoamperometric measurement was carried out according to the method described in Example 4, and the maltose/glucose (%) was calculated.

MpGDH = experiment: Maltose/glucose response current ratio, unimmobilized MpGDH with mPMS (chronoamperometry); assay type: biochemical, Mucor prainii; conditions: for maltose/glucose relative to MpGDH considered as 100%: unimmobilized MpGDH, mPMS, 5 mM maltose, +100 mV
Method: (§1) 10 μL of 12 mg/ml MpGDH purified preparation, 10 μL of 15 mM each glucose analog, and 10 μL of 20 mM potassium phosphate buffer were mixed and allowed to stand for 2 hours or longer. Onto screen-printed electrodes (manufactured by DropSens, Product number: DRP-C110), 80 μL of PBS, 5 μL of each MpGDH solution, and 10 μL of 2 mg/ml mPMS solution were applied and mixed. Chronoamperometric measurement was carried out at an applied voltage of +100 mV (Ag/Ag+). Once the current value had become sufficiently constant (about 100 seconds after the start of measurement), a maltose solution was added to a final concentration of 5 mM and mixed by pipetting up and down. Measurement was stopped once the current value had become sufficiently constant. The difference in the response current before and after the addition of maltose was regarded as the response current value of maltose. In contrast, when an equivalent amount of pure water was added instead of the maltose solution, increase in the response current was not observed. The used printed electrode was thoroughly washed with ultrapure water and dried, and then chronoamperometric measurement was carried out in the same manner as above. A glucose solution was added instead of the maltose solution and the response current value of glucose was measured. The value calculated by dividing the response current value of maltose by the response current value of glucose was expressed as maltose/glucose (%).

Wild type MpGDH [2] = experiment: Maltose/glucose response current ratio, IPPD/MpGDH-immobilized screen-printed electrode (chronoamperometry); assay type: biochemical, Mucor prainii; conditions: for Maltose/Glucose (%) / Relative value (%) of Maltose/Glucose: 5 mM additive, immobilized wild type MpGDH; for Maltose/Glucose (%): 1 mM maltose, 1 mM glucose, +250 mV; for Relative value (%) of Maltose/Glucose: no modifier = 100%; for Modification of substrate specificity: immobilized MpGDH
Text: (§2) The ratio (Mal/Glu) of the reactivity of the glucose dehydrogenase to maltose (Mal) relative to the reactivity thereof to glucose (Glu) can be determined by the following procedures. Onto a printed carbon electrode, N-isopropyl-N′-phenyl-p-phenylenediamine (IPPD) is immobilized by adsorption and a glucose dehydrogenase is immobilized by cross-linking using glutaraldehyde, wherein the glucose dehydrogenase is, for example, a glucose dehydrogenase from a microorganism of the genus Mucor or a glucose dehydrogenase from a microorganism of the genus Aspergillus. Chronoamperometry is performed by using a three-electrode system composed of a working electrode, a counter electrode, and a reference electrode and applying a potential of +250 mV (Ag/AgCl). Once the current value has become sufficiently constant, maltose is added to a final concentration of 1 mM in phosphate-buffered saline (PBS) (for example, maltose is added 100 seconds after the start of measurement). Next, once the current value has become sufficiently constant again after the addition of maltose, glucose is added to a final concentration of 1 mM in phosphate-buffered saline (PBS) (for example, glucose is added 100 seconds after the addition of maltose). The substrate specificity of glucose dehydrogenase can be evaluated by measuring the reactivity thereof to maltose when the reactivity thereof to glucose is considered as 100%. In the present specification, the ratio of the reactivity to maltose (Mal) relative to the reactivity to glucose (Glu) may be denoted as Mal/Glu. When the reactivity is evaluated based on the response current(s), the ratio of the reactivity may be expressed as the ratio of the response current(s).
(§3) 10 μL of 12 mg/ml MpGDH purified preparation, 10 μL of 15 mM each glucose analog, and 10 μL of 20 mM potassium phosphate buffer were mixed and allowed to stand for 2 hours or longer. N-isopropyl-N′-phenyl-p-phenylenediamine (IPPD) was immobilized by adsorption onto screen-printed electrodes (manufactured by DropSens, Product number: DRP-C110) and 12 μg of each MpGDH was applied to the electrodes and allowed to dry at room temperature. Lastly, the electrodes were placed in 25% glutaraldehyde vapor and the resulting electrodes were washed with pure water to obtain IPPD.MpGDH-immobilized electrodes. Next, the electrode was connected to an ALS electrochemical analyzer 814D via a dedicated connector (DRP-CAC). Then, the IPPD.GDH-immobilized electrode, an Ag/AgCl reference electrode, and a platinum counter electrode were immersed in PBS and chronoamperometric measurement was carried out. The applied voltage was set to +250 mV (Ag/AgCl). Once the current value had become sufficiently constant (about 100 seconds after the start of measurement), maltose was added to a final concentration of 1 mM in PBS. Next, subsequently to the addition of the maltose solution, once the current value had become sufficiently constant again (about 100 seconds after the addition of maltose), a glucose solution was added to a final concentration of 1 mM. The difference in the response current before and after the addition of maltose was recorded as the response current value of maltose, and the difference in the response current before and after the addition of glucose was recorded as the response current value of glucose. The value calculated by dividing the response current value of maltose by the response current value of glucose was expressed as maltose/glucose (%). […] Furthermore, when the maltose/glucose of MpGDH in the absence of a substrate specificity modifier is considered as 100%, the value in the presence of D-glucal became 69%, and the substrate specificity was modified.

[3] = tested on: GLD1 (glucose dehydrogenase (FAD-dependent), BBI Solutions); experiment: Maltose/glucose response current ratio, IPPD/GLD1-immobilized screen-printed electrode (chronoamperometry); assay type: biochemical, Aspergillus; conditions: for Maltose/Glucose (%) / Relative value (%) of Maltose/Glucose: 5 mM additive; for Maltose/Glucose (%): 1 mM maltose, 1 mM glucose; for Relative value (%) of Maltose/Glucose: no modifier = 100%
Text: as §2, §3
In the same manner, glucose dehydrogenase (FAD-dependent) (from BBI Solutions, Product Code: GLD1, hereinafter denoted as GLD1) was used to examine the effect of the substrate specificity modifier.

MrdGDH [4] = experiment: Maltose/glucose response current ratio, unimmobilized MrdGDH with mPMS (chronoamperometry); assay type: biochemical, Mucor RD056860; conditions: for Maltose/Glucose (%) / Relative value (%) of Maltose/Glucose: 5 mM additive; for Maltose/Glucose (%): mPMS; for Relative value (%) of Maltose/Glucose: no modifier = 100%
Method: as §1
(§4) In the same manner, MrdGDH was used to examine the effect of the substrate specificity modifier.

[5] = tested on: GLD1 (glucose dehydrogenase (FAD-dependent), BBI Solutions); experiment: Maltose/glucose response current ratio, unimmobilized GLD1 with mPMS (chronoamperometry); assay type: biochemical, Aspergillus; conditions: for Maltose/Glucose (%) / Relative value (%) of Maltose/Glucose: 5 mM additive; for Maltose/Glucose (%): mPMS; for Relative value (%) of Maltose/Glucose: no modifier = 100%
Method: as §1
In the same manner, GLD1 was used to examine the effect of the substrate specificity modifier.

MrdGDH [6] = experiment: Maltose/glucose response current ratio, IPPD/MrdGDH-immobilized screen-printed electrode (chronoamperometry); assay type: biochemical, Mucor RD056860; conditions: for Maltose/Glucose (%) / Relative value (%) of Maltose/Glucose: 5 mM additive; for Maltose/Glucose (%): 1 mM maltose, 1 mM glucose; for Relative value (%) of Maltose/Glucose: no modifier = 100%
Text: as §2, §3, §4

Modification of substrate specificity [3]	Maltose/Glucose (%) [3] [%]	Relative value (%) of Maltose/Glucose [3] [%]	Modification of substrate specificity [5]	Maltose/Glucose (%) [5] [%]	Relative value (%) of Maltose/Glucose [5] [%]	SMILES	Maltose/Glucose Relative value (%) (Wild type MpGDH [1])	Modification of substrate specificity of GDH (Wild type MpGDH [1])	maltose/glucose relative to MpGDH considered as 100% (MpGDH) [%]	Maltose/Glucose (%) (Wild type MpGDH [2])	Relative value (%) of Maltose/Glucose (Wild type MpGDH [2]) [%]	Modification of substrate specificity (Wild type MpGDH [2])	Modification of substrate specificity (MrdGDH [4])	Maltose/Glucose (%) (MrdGDH [4])	Relative value (%) of Maltose/Glucose (MrdGDH [4]) [%]	Modification of substrate specificity (MrdGDH [6])	Maltose/Glucose (%) (MrdGDH [6])	Relative value (%) of Maltose/Glucose (MrdGDH [6]) [%]	Acts as substrate specificity modifier (MpGDH; enzyme not immobilized)
						OC[C@@H](O)[C@H](O)[C@@H](O)CO [Xylitol, xylitol]	21	modified the substrate specificity											
						OCC(O)CO [Glycerol, glycerol]	29	modified the substrate specificity											
modified the substrate specificity	0	0	modified the substrate specificity	0.23	70	O=C[C@@H](O)[C@@H](O)[C@H](O)[C@@H](O)CO [L-gulose]	62	modified the substrate specificity	56	0.34	74	modified the substrate specificity	modified the substrate specificity	28	90				
						OC[C@@H](O)[C@@H](O)[C@H](O)[C@@H](O)CO [Sorbitol, sorbitol]			67	0.2	43	modified the substrate specificity	modified the substrate specificity	23	74	modified the substrate specificity	17	73	
			modified the substrate specificity	0.29	88	OC[C@@H](O)[C@@H](O)[C@@H](O)CO [Ribitol, ribitol]			58	0.08	17	modified the substrate specificity	modified the substrate specificity	22	71				
modified the substrate specificity	0	0	modified the substrate specificity	0.25	76	OC[C@H](O)[C@@H](O)[C@H](O)[C@@H](O)CO [L-iditol]	58	modified the substrate specificity	68										act as a substrate specificity modifier
						OC[C@@H](O)[C@@H](O)[C@H](O)[C@H](O)CO [D-mannitol]	3	modified the substrate specificity											
modified the substrate specificity	0.01	4				OC[C@@H](O)[C@H](O)[C@@H](O)[C@H](O)CO [D-iditol]			84	0.1	22	modified the substrate specificity	modified the substrate specificity	21.6	70	modified the substrate specificity	19.3	83	
modified the substrate specificity	0.08	35	modified the substrate specificity	0.28	85	OC[C@H]1O[C@H](O[C@H]2O[C@H](CO)[C@@H](O)[C@H](O)[C@H]2O)[C@H](O)[C@@H](O)[C@@H]1O [Trehalose, trehalose]			72				modified the substrate specificity	22	71	modified the substrate specificity	14.4	62	
modified the substrate specificity	0.09	30	modified the substrate specificity	0.25	76	OC[C@H]1OC=C[C@@H](O)[C@@H]1O [D-glucal]					69					modified the substrate specificity	18.1	78	
